# In patent US5478828A, “Piperazinyl-and piperidinyl-cyclohexanols” (Bristol-Myers Squibb Company, priority 1995, dated 1995):
# Structures can show the parent of a compound that is named as a salt. Where two headings read alike, the source gives them in different places.
# Assays:
# 5-HT1A receptor = experiment: In vitro receptor binding, 5-HT1A
# Protocol: In vitro IC50 test values for binding to the 5-HT1A receptor were determined for representative compounds of Formula I by the method of S. J. Peroutka, Brain Research 344, 167 (1985); with only minor modifications. Test IC50 values lower than 100 nM are considered to reflect activity at the 5-HT1A receptor.
# D2 receptor = target: T1, D2 receptor (Bos taurus, UniProt P20288); experiment: In vitro receptor binding, D2
# T1 construct: from tissue
# Protocol: In vitro IC50 test values for binding to the D2 receptor were determined for representative compounds of Formula I by the method of Burt, Creese, and Snyder, Molecular Pharmacology 12, 800 (1976); Creese, Burt, and Snyder, Science 196, 326 (1977); and Creese, Burt and Snyder, Science.
# [1] = in vitro, read-out: D2 receptor binding IC50
# T1 sequence (P20288 whole entry): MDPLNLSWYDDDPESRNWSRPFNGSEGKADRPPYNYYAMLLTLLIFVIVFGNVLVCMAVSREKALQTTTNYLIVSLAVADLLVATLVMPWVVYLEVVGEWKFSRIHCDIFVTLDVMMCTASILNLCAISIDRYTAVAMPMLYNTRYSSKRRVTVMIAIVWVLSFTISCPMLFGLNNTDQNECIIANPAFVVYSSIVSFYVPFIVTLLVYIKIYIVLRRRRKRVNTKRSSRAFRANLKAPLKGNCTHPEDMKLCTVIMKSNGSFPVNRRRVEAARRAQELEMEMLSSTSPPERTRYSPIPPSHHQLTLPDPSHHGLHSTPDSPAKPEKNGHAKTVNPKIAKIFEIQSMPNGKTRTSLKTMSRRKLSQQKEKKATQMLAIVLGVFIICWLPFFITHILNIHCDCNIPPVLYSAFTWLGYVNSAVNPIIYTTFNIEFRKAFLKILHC
Structure (SMILES),IC50 (5-HT1A receptor),IC50 (D2 receptor; [1]),IC50 (D2 receptor)
"O[C@]1(c2ccc3c(c2)OCO3)CC[C@H](N2CCC(Cc3ccccc3)CC2)CC1 [Example 15, Z-1-(1,3-Benzodioxol-5-yl)-4-[4-(phenylmethyl)-1-piperidinyl]cyclohexanol]",5.4 nM,> 1000 nM,
"COc1ccc([C@]2(O)CC[C@@H](N3CCC(Cc4ccccc4)CC3)CC2)cc1 [Example 16, Z-1-(4-Methoxyphenyl)-4-[4-(phenylmethyl)-1-piperidinyl]cyclohexanol]",15.6 nM,2710 nM,
"O[C@]1(c2ccc3c(c2)OCO3)CC[C@H](N2CCN(Cc3ccccc3)CC2)CC1 [Example 17, Z-1-(1,3-Benzodioxol-5-yl)-4-[4-(phenylmethyl)-1-piperazinyl]cyclohexanol]",20 nM,1710 nM,
"COc1ccc([C@]2(O)CC[C@@H](N3CCN(Cc4ccccc4)CC3)CC2)cc1 [Example 18, Z-1-(4-Methoxyphenyl):4-[4-(phenylmethyl)-1-piperazinyl]cyclohexane]",46.5 nM,1830 nM,
"CO[C@]1(c2ccc3c(c2)OCO3)CC[C@H](N2CCN(Cc3ccccc3)CC2)CC1 [Example 19, Z-1-[4-(1,3,-Benzodioxol-5-yl)-4-methoxycyclohexyl]-4-(phenylmethyl)piperazine]",14 nM,1350 nM,
"O[C@]1(c2ccc3c(c2)OCCO3)CC[C@@H](N2CCN(Cc3ccccc3)CC2)CC1 [Example 20-E, E-1-(1,4-Benzodioxan-6-yl)-4-[4-(phenylmethyl)-1-piperazinyl]cyclohexanol]",5.3 nM,,
"O[C@]1(c2ccc3c(c2)OCCO3)CC[C@H](N2CCN(Cc3ccccc3)CC2)CC1 [Example 20-Z, Z-1-(1,4-Benzodioxan-6-yl)-4-[4-(phenylmethyl)-1-piperazinyl]cyclohexanol]",9.9 nM,15200 nM,
"COc1cccc(CN2CCN([C@H]3CC[C@](O)(c4ccc5c(c4)OCO5)CC3)CC2)c1 [Example 21, Z-1-(1,3,-Benzodioxol-5-yl)-4-[4-[(3-methoxyphenyl)methyl]-1-piperazinyl]-cyclohexanol]",2.15 nM,1040 nM,
"O[C@]1(c2ccc3c(c2)OCO3)CC[C@H](N2CCN(Cc3cccc(F)c3)CC2)CC1 [Example 22, Z-1-(1,3-Benzodioxol-5-yl)-4-[4-[(3-fluorophenyl)methyl]-1-piperazinyl]cyclohexanol]",13.4 nM,,
"O[C@]1(c2ccc3c(c2)OCO3)CC[C@H](N2CCN(Cc3ccccc3F)CC2)CC1 [Example 23, Z-1-(1,3-Benzodioxol-5-yl)-4-[4,[(2-fluorophenyl)methyl]-1-piperazinyl]cyclohexanol]",10.1 nM,,1540 nM
"Cc1ccccc1CN1CCN([C@H]2CC[C@](O)(c3ccc4c(c3)OCO4)CC2)CC1 [Example 24, Z-1-(1,3-Benzodioxol-5-yl)-4-[4-[(2-methylphenyl)methyl]-1-piperazinyl]cyclohexanol]",4.2 nM,2550 nM,
"O=[N+]([O-])c1ccccc1CN1CCN([C@H]2CC[C@](O)(c3ccc4c(c3)OCO4)CC2)CC1 [Example 25, Z-1-(1,3-Benzodioxol-5-yl)-4-[4-[(2,-nitrophenyl)methyl]-1-piperazinyl]cyclohexanol]",12.8 nM,7080 nM,
"O[C@]1(c2ccc3c(c2)OCO3)CC[C@H](N2CCN(Cc3cccs3)CC2)CC1 [Example 26, Z-1-(1,3-Benzodioxol-5-yl)-4-[4-(2-thienylmethyl)-1-piperazinyl]cyclohexano]",19.1 nM,,
"O[C@]1(c2ccc3c(c2)OCO3)CC[C@H](N2CCN(Cc3ccccc3Cl)CC2)CC1 [Example 27, Z-1-(1,3-Benzodioxol-5-yl)-4-[4-[(2-chlorophenyl)methyl]-1-piperazinyl]cyclohexanol]",1.85 nM,,
"O[C@]1(c2ccc3c(c2)OCO3)CC[C@H](N2CCN(Cc3cc(Cl)ccc3Cl)CC2)CC1 [Example 28, Z-1-(1,3-Benzodioxol-5-yl)-4-[4-[(2,5-dichlorophenyl)methyl]-1-piperazinyl]-cyclohexanol]",0.6 nM,,
"O[C@]1(c2ccc3c(c2)OCO3)CC[C@H](N2CCN(Cc3cc(F)ccc3F)CC2)CC1 [Example 29, Z-1-(1,3-Benzodioxol-5-yl)-4-[4-[(2,5-difluorophenyl)methyl]-1-piperazinyl]-cyclohexanol]",2.6 nM,,
"O[C@]1(c2ccc3c(c2)OCO3)CC[C@H](N2CCN(Cc3cccc(F)c3F)CC2)CC1 [Example 30, Z-1-(1,3-Benzodioxol-5-yl)-4-[4,[(2,3-difluorophenyl)methyl]-1-piperazinyl]-cyclohexanol]",17.3 nM,,
"O[C@]1(c2ccc3c(c2)OCO3)CC[C@H](N2CCN(Cc3cc(F)cc(F)c3)CC2)CC1 [Example 31, Z-1-(1,3-Benzodioxol-5-yl)-4-[4-[(3,5-difluorophenyl)methyl]-1-piperazinyl]-cyclohexanol]",21.1 nM,,
"O[C@]1(c2ccc3c(c2)OCO3)CC[C@H](N2CCN(Cc3ccccc3I)CC2)CC1 [Example 32, Z-1-(1,3-Benzodioxol-5-yl)-4-[4-[(2-iodophenyl)methyl]-1-piperazinyl]cyclohexanol]",1.2 nM,,
"O[C@]1(c2ccc3c(c2)OCO3)CC[C@H](N2CCN(Cc3cccc4c3OCO4)CC2)CC1 [Example 33, Z-1-(1,3-Benzodioxol-5-yl)-4-[4-[(1,3-benzodioxo-4-yl)methyl]-1-piperazinyl]-cyclohexanol]",34.9 nM,,
"COc1cccc(CN2CCN([C@H]3CC[C@](O)(c4ccc(F)cc4)CC3)CC2)c1 [Example 34, Z-1-(4-Fluorophenyl)-4-[4-[(3-methoxyphenyl)methyl]-1-piperazinyl]cyclohexanol]",10.6 nM,,
"O[C@]1(c2ccc(F)cc2)CC[C@H](N2CCN(Cc3ccccc3Cl)CC2)CC1 [Example 35, Z-1-(4-Fluorophenyl)-4-[4-[(2-chlorophenyl)methyl]-1-piperazinyl]cyclohexanol]",5.9 nM,,
"O[C@]1(c2ccc3c(c2)OCO3)CC[C@H](N2CCN(Cc3ccccc3Br)CC2)CC1 [Example 50, Z-1-(1,3-Benzodioxol-5-yl)-4-[4-[(2-bromophenyl)methyl]-1-piperazinyl]cyclohexanol]",1.2 nM,,

# More lines, main results first:
IC50 (5-HT1A receptor),IC50 (D2 receptor; [1]),Structure (SMILES),IC50 (D2 receptor)
25.8 nM,,"O[C@]1(c2ccc(C(F)(F)F)cc2)CC[C@H](N2CCN(Cc3ccccc3Cl)CC2)CC1 [Example 37, Z-1-[(4-Trifluoromethyl)phenyl]-4-[4-[(2-chlorophenyl)methyl]-1-piperazinyl]-cyclohexanol]",
35.6 nM,,"COc1cccc(CN2CCN([C@H]3CC[C@](O)(c4ccc(C(F)(F)F)cc4)CC3)CC2)c1 [Example 38, Z-1-[(4-Trifluoromethyl)phenyl]-4-[4-[(3-methoxyphenyl)methyl]-1-piperazinyl]-cyclohexanol]",
0.75 nM,,"COc1ccc(F)c(CN2CCN([C@H]3CC[C@](O)(c4ccc5c(c4)OCO5)CC3)CC2)c1 [Example 39, Z-1-(1,3-Benzodioxol-5-yl)-4-[4-[(2-fluoro-5-methoxyphenyl)methyl]-1-piperazinyl]cyclohexanol]",
3.45 nM,,"COc1ccc(F)c(CN2CCN([C@H]3CC[C@](O)(c4ccc(F)cc4)CC3)CC2)c1 [Example 40, Z-1-(4-Fluorophenyl)-4,-[4,-[(2-fluoro-5-methoxyphenyl)methyl]-1piperazinyl]cyclohexanol]",
2.2 nM,,"COc1cccc(CC2CCN([C@H]3CC[C@](O)(c4ccc5c(c4)OCCO5)CC3)CC2)c1 [Example 41, Z-1-(1,4-Benzodioxan-6-yl)-4-[4-[(3-methoxyphenyl)methyl]-1-piperidinyl]cyclohexanol]",
4.4 nM,,"COc1cccc(CC2CCN([C@H]3CC[C@](O)(c4ccc5c(c4)OCO5)CC3)CC2)c1 [Example 42, Z-1-(1,3-Benzodioxol-5-yl)-4-[4-[(3-methoxyphenyl)methyl]-1-piperidinyl]cyclohexanol]",
4.9 nM,,"O[C@]1(c2ccc3c(c2)OCO3)CC[C@H](N2CCC(Cc3cc(F)ccc3F)CC2)CC1 [Example 43, Z-1-(1,3-Benzodioxol-5-yl)-4-[4-[(2,5-difluorophenyl)methyl]-1-piperidinyl]cyclohexanol]",
8.2 nM,49200 nM,"COc1cccc(CC2CCN([C@H]3CC[C@](OC)(c4ccc5c(c4)OCO5)CC3)CC2)c1 [Example 44, Z-1-[4-(1,3-Benzodioxol-5-yl)-4-methoxy-1-cyclohexyl]-4-[(3-methoxyphenyl)methyl]-piperidine]",
3.4 nM,,"COc1cccc(CC2CCN([C@H]3CC[C@](OC)(c4ccc5c(c4)OCCO5)CC3)CC2)c1 [Example 45, Z-1-[4-(1,4-Benzodioxan-6-yl)-4-methoxy-1-cyclohexyl]-4-[3-(methoxyphenyl)methyl]-piperidine fumarate]",
16.2 nM,,"CO[C@]1(c2ccc3c(c2)OCO3)CC[C@H](N2CCC(Cc3cc(F)ccc3F)CC2)CC1 [Example 46, Z-1-[4-(1,3-Benzodioxol-5-yl)-4-methoxy-1-cyclohexyl]-4-[(2,5,-difluorophenyl)-methyl]piperidine fumarate]",
59.8 nM,,"O[C@]1(c2ccc(F)cc2)CC[C@H](N2CCC(Cc3ccccc3)CC2)CC1 [Example 47, Z-1-(4-Fluorophenyl)-4-[4-(phenylmethyl)-1-piperidinyl]cyclohexanol]",
31.9 nM,,COc1cccc(CC2CCN([C@H]3CC[C@](O)(c4ccc(F)cc4)CC3)CC2)c1 [Example 48],
57.6 nM,,"O[C@]1(c2ccc(F)cc2)CC[C@H](N2CCC(Cc3cc(F)ccc3F)CC2)CC1 [Example 49, Z-1-(4-Fluorophenyl)-4-[4-[(2,5-difluorophenyl)methyl]-1-piperidinyl]cyclohexanol]",
28.6 nM,,"O[C@]1(c2ccc3c(c2)OCO3)CC[C@H](N2CCN(C(c3ccccc3)c3ccccc3)CC2)CC1 [Example 51, Z-1-(1,3-Benzodioxol-5-yl)-4-[4-(diphenylmethyl)-1-piperazinyl]cyclohexanol]",
18.1 nM,,"CC(c1ccccc1)N1CCN([C@H]2CC[C@](O)(c3ccc4c(c3)OCO4)CC2)CC1 (stereo partly shown) [Example 52, Z-1-(1,3-Benzodioxol-5-yl)-4-[4-(1-phenylethyl)-1-piperazinyl]cyclohexanol]",
